Patent publication US9333202B2, “Non-retinoid antagonists for treatment of age-related macular degeneration and stargardt disease” (THE TRUSTEES OF COLUMBIA UNIVERSITY IN THE CITY OF NEW YORK, priority 2012, dated 2016)

How the values were obtained:
[1] = system: lipofuscin bisretinoids (A2E, A2-DHP-PE, atRAL di-PE); experiment: Bisretinoid (lipofuscin fluorophore) levels in eyecups of Abca4−/− mice by HPLC; assay type: in vivo, mouse
Description: The Abca4−/− mouse model manifests accelerated accumulation of lipofuscin in the RPE and is considered a pre-clinical efficacy model for a drug reducing lipofuscin accumulation. […] There was approximately a 70% reduction in the serum RBP4 level in treated animals (FIG. 11). Additionally, it was discovered that that the levels of A2E/isoA2E and other bisretinoids were reduced by approximately 50% in treated mice (FIG. 12).
Abca4/Abcr null mutant mice (albino) homozygous for Rpe65-Leu450 are bred genotyped and housed. Posterior eyecups of mice and RPE/choroids harvested from human donor eyes (National Disease Research Interchange, Philadelphia Pa.) are homogenized in phosphate buffered saline (PBS) using a glass tissue grinder and extracted in chloroform/methanol (2:1). Extracts are subsequently filtered through cotton and passed through a reverse phase cartridge (C8 Sep-Pak, Millipore) with 0.1% TFA (Aldrich Chemical Company, Milwaukee, Wis.) in methanol. […] An Alliance system (Waters, Corp, Milford, Mass.) equipped with 2695 Separation Module, 2996 Photodiode Array Detector, a 2475 Multi λ Fluorescence Detector and operating with Empower® software is used for HPLC analysis. […] HPLC quantification is carried out using the Empower® software to determine peak areas. […] Molar quantity per murine eye is determined using calibration curves constructed from known concentrations of purified external standards and by normalizing to the ratio of the HPLC injection volume (10 μL) versus total extract volume. […]
Following euthanasia, posterior eye cups were pooled and homogenized in PBS using a tissue grinder. […] For quantification of bisretinoids of RPE lipofuscin, a Waters Alliance 2695 HPLC system was employed with an Atlantis dC18 column (Waters, 4.6 mm×150 mm, 3 μm) and the following gradient of acetonitrile in water (containing 0.1% trifluoroacetic acid): 90 to 100% from 0 to 10 min and 100% acetonitrile from 10 to 20 min, with a flow rate of 0.8 mL/min with monitoring at 430 nm. […] Levels of bisretinoid were determined by reference to external standards of HPLC-purified compound. […]

[2] = Observation of toxicity signs during 6 week chronic dosing; assay type: in vivo; details: 6 week-long chronic dosing, 30 mg/kg daily oral
Description: Ten week-old Abca4 null mutant mice (129/SV×C57BL/6J) bred as previously described were used in the study. Abca4−/− (knockout) and Abca4+/+(wild-type) mice were raised under 12 h on-off cyclic lighting with an in-cage illuminance of 30-50 lux. For long-term oral dosing A1120 was formulated into Purina 5035 rodent chow at Research Diets, Inc. (New Brunswick, N.J.) to ensure consistent 30 mg/kg daily oral dosing. Animals were administered the A1120-containing chow for 6 weeks.
To determine whether A1120 has an effect on retinal production of lipofuscin fluorophores we administered the compound at the daily 30 mg/kg dose to Abca4−/− mice for a period of 6 weeks. Blood samples collected from the treatment and control groups at baseline, Day 21 and Day 42 were used to measure serum RBP4 in order to correlate RBP4 levels with reduction in formation of lipofuscin bisretinoids. […] Levels of lipofuscin fluorophores (A2E, A2-DHP-PE and all-trans-retinal dimer-PE) were determined at the end of the 42-day treatment period using quantitative HPLC.
Administration of A1120 reduces the production of A2E, A2-DHP-PE, and atRAL di-PE in A1120-treated Abca4−/− mice in comparison to the vehicle-treated Abca4−/− animals by approximately 50%.

RBP4-TTR interaction = RBP4-TTR interaction (Homo sapiens, UniProt P02753); experiment: TR-FRET (HTRF) assay for antagonists of retinol-induced RBP4-TTR interaction, agonist and antagonist mode (Example 2); assay type: biochemical; set-up: made in house; host or cells: E. coli; details: agonist mode, dose titration
Description: TR-FRET (Time-Resolved Fluorescence Resonance Energy Transfer) is an assay format that can be used in characterization of compounds affecting protein-protein interactions (31-33). […] In the presence of retinol, RBP4-TTR interaction induces FRET that can be registered as increased ratio of […] fluorescence signals. Binding of a desired RBP4 antagonist displaces retinol and induces hindrance for RBP4-TTR interaction resulting in the decreased FRET signal (FIG. 7).
The assay was developed using E. coli-expressed MBP-tagged RBP4 and commercially available TTR labeled directly with Eu3+ cryptate. In addition to MBP-RBP4 and Eu3+ (K)-TTR, a detector reagent anti-MBP-d2 was present in the mix. The assay was first optimized in the agonist mode; sensitivity and dynamic range of the assay was […] in respect to RBP4, TTR and detection reagent concentrations.

[3] = treated mice, oral 30 mg/kg (Example 3)

## O=C(O)c1ccccc1NC(=O)N1CCC(c2ccccc2C(F)(F)F)CC1 [Compound 1, 2(4-(2-(trifluoromethyl)phenyl)piperidine-1-carboxamido)benzoic acid]
[1]; Abca4−/− mouse model of excessive lipofuscinogenesis
  Effect on bisretinoid accumulation (in words): inhibits bisretinoid accumulation
[1]; [3]
  Levels of A2-DHP-PE and atRAL di-PE: also reduced
  Reduction of levels of A2E/isoA2E and other bisretinoids: approximately 50%
[2]
  Signs of compound toxicity such as weight loss or reduction in food consumption: did not note any obvious signs of compound toxicity
RBP4-TTR interaction
  Induction of RBP4-TTR interaction: did not induce RBP4-TTR interaction
